# Test system: T1, B0AT1
# T1 construct: gene SLC6A19; native full-length transporter in brush border membrane vesicles from ileal villus cells; not purified
# Test: 3H-glutamine uptake into villus BBMV, rapid filtration, […] s
# Format: biochemical, Oryctolagus cuniculus
# Details: labelled compound; Na-dependent uptake (100 mM NaCl minus choline), pH 7.5, voltage clamped; normal (control) rabbits
smiles,measurement,value
NC(=O)CC[C@H](N)C(=O)O [glutamine],Km,24 ± 1.5 mM

# Source: paper PMC4405831, “Mast cell regulation of Na-glutamine co-transporters B0AT1 in villus and SN2 in crypt cells during chronic intestinal inflammation” (BMC Gastroenterology, 2015)
